Experimental data reported in ChEMBL document CHEMBL5223100, “Homobivalent, Trivalent, and Covalent PROTACs: Emerging Strategies for Protein Degradation” (J Med Chem, 2022).

Key:
[1] = biological target: Bromodomain-containing protein 4 (Homo sapiens, UniProt O60885); assay: Induction of BRD4 degradation in human HeLa cells assessed as maximum degradation at 10 nM after 12 hrs relative to control; assay type: cell-based
HeLa = assay: Antiproliferative activity against human HeLa cells; assay type: functional, cell-based
MCF7 = assay: Antitumor activity against human MCF7 cells xenografted in mouse assessed as tumor growth inhibition; assay type: functional
HT-29 = assay: Antiproliferative activity against human HT-29 cells; assay type: functional, cell-based
[2] = biological target: Dual specificity mitogen-activated protein kinase kinase; MEK1/2 (Homo sapiens) (UniProt P36507+Q02750); assay: Induction of MEK degradation in human HT-29 cells assessed as maximum degradation at 100 nM after 12 hrs relative to control; assay type: cell-based
[3] = biological target: Transcription intermediary factor 1-alpha (Homo sapiens, UniProt O15164); assay: Inhibition of His-tagged TRIM24 (unknown origin) expressed in Escherichia coli BL21(DE3)pLysS competent cells using biotinylated-H3K23ac peptide as substrate incubated for 30 mins by Alphascreen assay
[4] = biological target: T1, Tyrosine-protein kinase Blk (Homo sapiens, UniProt P51451); assay: Induction of BLK degradation in human K562 cells; assay type: cell-based
Target sequence in this assay (P51451 whole entry): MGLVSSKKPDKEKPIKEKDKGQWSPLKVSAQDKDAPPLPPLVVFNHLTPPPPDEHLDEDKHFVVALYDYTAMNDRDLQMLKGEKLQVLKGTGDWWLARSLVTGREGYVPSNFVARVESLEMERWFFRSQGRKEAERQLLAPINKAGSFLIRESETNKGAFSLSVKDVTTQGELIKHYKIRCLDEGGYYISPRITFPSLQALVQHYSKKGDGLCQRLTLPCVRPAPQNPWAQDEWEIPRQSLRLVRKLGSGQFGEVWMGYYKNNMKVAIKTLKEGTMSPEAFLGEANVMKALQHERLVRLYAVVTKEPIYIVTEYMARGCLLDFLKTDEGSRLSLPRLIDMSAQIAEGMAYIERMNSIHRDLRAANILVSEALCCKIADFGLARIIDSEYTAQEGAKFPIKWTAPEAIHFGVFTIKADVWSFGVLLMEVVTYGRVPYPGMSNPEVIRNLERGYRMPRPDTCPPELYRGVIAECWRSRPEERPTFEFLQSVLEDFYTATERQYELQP

[5] = biological target: T2, Tyrosine-protein kinase BTK (Homo sapiens, UniProt Q06187); assay: Induction of BTK degradation in human K562 cells assessed as maximum degradation relative to control; assay type: cell-based
[6] = biological target: T2, Tyrosine-protein kinase BTK; assay: Induction of BTK degradation in human K562 cells; assay type: cell-based
[7] = biological target: T1, Tyrosine-protein kinase Blk; assay: Induction of BLK degradation in human K562 cells assessed as maximum degradation relative to control; assay type: cell-based
Protein cereblon [8] = biological target: T3, Protein cereblon (Homo sapiens, UniProt Q96SW2); assay: Induction of CRBN degradation in human HeLa cells at 1 uM incubated for 4 hrs relative to control; assay type: cell-based
Protein cereblon [9] = biological target: T3, Protein cereblon; assay: Induction of CRBN degradation in human HeLa cells incubated for 4 hrs; assay type: cell-based
[10] = biological target: T2, Tyrosine-protein kinase BTK; assay: Induction of BTK degradation in human MINO cells; assay type: cell-based
[11] = biological target: T2, Tyrosine-protein kinase BTK; assay: Induction of BTK degradation in human MINO cells assessed as maximum degradation relative to control; assay type: cell-based
[12] = biological target: Androgen receptor (Homo sapiens) (UniProt P10275); assay: Induction of AR degradation in human 22Rv1 cells assessed as maximum degradation at 10 uM after 8 hrs relative to control; assay type: cell-based
[13] = biological target: T2, Tyrosine-protein kinase BTK; assay: Induction of BTK degradation in human Ramos cells assessed as maximum degradation at 300 nM relative to control; assay type: cell-based
A549 = assay: Antiproliferative activity against human A549 cells; assay type: functional, cell-based
HCT-116 = assay: Antiproliferative activity against human HCT-116 cells; assay type: functional, cell-based
[14] = biological target: ALK tyrosine kinase receptor (Homo sapiens) (UniProt Q9UM73); assay: Induction of ALK degradation in human SU-DHL-1 cells assessed as maximum degradation at 100 nM pretreated with S-Ac-GSH followed by compound addition and measured after 12 hrs relative to control; assay type: cell-based
[15] = biological target: ALK tyrosine kinase receptor (Homo sapiens) (UniProt Q9UM73); assay: Induction of ALK degradation in human SU-DHL-1 cells assessed as maximum degradation at 3 uM after 12 hrs relative to control; assay type: cell-based
SU-DHL-1 = assay: Antiproliferative activity against human SU-DHL-1 cells; assay type: functional, cell-based
HepG2 = assay: Antiproliferative activity against human HepG2 cells; assay type: functional, cell-based
Huh-7 = assay: Antiproliferative activity against human Huh-7 cells; assay type: functional, cell-based

T2 sequence (Q06187 whole entry): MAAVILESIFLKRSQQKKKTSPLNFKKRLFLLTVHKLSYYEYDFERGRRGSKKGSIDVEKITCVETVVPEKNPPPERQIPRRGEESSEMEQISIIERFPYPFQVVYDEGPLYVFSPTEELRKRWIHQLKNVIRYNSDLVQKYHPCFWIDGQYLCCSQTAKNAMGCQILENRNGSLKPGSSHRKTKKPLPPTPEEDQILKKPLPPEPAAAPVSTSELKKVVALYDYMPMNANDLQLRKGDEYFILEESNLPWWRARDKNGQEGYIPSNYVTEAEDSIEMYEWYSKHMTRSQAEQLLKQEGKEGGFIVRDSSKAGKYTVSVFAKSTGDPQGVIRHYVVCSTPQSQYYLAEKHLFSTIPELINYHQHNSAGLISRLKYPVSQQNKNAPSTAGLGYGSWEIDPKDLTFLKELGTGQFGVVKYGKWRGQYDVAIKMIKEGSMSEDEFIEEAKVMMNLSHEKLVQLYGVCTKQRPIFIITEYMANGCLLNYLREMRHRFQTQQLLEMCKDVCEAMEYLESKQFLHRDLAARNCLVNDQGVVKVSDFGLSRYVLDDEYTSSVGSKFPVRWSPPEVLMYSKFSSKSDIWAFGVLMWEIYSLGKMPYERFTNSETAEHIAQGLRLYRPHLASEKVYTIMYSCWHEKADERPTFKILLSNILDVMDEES
T3 sequence (Q96SW2 whole entry): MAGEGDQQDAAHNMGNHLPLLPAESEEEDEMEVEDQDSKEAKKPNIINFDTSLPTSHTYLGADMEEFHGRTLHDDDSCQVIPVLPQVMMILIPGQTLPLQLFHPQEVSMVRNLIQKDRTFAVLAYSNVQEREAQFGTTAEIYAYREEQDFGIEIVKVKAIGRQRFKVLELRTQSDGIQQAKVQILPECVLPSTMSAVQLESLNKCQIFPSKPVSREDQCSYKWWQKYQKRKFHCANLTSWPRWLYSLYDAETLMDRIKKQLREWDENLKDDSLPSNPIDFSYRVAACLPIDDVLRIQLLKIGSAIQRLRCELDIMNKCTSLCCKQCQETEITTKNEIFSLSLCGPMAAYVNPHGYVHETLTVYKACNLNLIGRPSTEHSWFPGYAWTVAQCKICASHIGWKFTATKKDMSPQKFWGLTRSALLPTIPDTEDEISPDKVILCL
ALK tyrosine kinase receptor (Homo sapiens), sequence (Q9UM73 19-1620 limits assumed): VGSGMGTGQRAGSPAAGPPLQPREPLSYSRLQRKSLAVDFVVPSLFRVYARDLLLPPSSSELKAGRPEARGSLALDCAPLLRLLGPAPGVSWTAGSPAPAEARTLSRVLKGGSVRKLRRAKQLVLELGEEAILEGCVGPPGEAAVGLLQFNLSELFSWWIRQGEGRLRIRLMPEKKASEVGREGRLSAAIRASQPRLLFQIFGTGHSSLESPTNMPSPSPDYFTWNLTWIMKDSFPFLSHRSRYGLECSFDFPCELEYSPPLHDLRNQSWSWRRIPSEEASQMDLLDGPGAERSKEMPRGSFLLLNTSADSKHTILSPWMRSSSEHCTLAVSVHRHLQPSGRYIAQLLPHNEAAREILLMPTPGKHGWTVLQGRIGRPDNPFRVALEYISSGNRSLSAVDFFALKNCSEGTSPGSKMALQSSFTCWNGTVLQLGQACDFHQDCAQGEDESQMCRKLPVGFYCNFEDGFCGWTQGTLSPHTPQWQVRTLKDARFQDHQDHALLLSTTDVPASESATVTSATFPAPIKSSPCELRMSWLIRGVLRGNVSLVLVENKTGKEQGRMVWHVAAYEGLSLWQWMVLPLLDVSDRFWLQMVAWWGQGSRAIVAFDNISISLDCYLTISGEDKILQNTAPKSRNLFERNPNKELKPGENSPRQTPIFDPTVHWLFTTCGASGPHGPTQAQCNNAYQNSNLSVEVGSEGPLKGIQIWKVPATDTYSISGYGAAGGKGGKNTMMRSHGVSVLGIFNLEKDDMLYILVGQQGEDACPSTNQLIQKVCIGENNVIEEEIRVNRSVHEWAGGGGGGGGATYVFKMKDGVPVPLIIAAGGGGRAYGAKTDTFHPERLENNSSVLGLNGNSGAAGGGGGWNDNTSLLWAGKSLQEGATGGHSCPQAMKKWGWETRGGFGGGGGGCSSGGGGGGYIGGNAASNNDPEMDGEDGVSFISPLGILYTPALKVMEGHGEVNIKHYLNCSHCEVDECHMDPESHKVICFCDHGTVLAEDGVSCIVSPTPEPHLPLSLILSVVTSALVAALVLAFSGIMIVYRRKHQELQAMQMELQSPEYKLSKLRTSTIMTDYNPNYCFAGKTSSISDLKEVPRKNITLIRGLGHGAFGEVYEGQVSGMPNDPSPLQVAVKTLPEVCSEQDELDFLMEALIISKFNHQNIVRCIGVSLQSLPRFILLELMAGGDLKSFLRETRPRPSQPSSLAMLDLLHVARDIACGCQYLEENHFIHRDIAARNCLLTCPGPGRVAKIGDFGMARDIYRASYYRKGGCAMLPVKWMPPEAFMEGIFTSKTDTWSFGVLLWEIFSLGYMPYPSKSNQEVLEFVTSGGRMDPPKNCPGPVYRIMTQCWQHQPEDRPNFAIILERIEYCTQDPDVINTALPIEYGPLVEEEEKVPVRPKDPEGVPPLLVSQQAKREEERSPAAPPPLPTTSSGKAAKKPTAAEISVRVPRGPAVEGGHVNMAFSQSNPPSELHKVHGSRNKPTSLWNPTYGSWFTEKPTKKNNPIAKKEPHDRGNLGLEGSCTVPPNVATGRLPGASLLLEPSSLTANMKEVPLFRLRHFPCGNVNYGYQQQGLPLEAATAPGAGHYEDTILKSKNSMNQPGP
Transcription intermediary factor 1-alpha, sequence (O15164 whole entry): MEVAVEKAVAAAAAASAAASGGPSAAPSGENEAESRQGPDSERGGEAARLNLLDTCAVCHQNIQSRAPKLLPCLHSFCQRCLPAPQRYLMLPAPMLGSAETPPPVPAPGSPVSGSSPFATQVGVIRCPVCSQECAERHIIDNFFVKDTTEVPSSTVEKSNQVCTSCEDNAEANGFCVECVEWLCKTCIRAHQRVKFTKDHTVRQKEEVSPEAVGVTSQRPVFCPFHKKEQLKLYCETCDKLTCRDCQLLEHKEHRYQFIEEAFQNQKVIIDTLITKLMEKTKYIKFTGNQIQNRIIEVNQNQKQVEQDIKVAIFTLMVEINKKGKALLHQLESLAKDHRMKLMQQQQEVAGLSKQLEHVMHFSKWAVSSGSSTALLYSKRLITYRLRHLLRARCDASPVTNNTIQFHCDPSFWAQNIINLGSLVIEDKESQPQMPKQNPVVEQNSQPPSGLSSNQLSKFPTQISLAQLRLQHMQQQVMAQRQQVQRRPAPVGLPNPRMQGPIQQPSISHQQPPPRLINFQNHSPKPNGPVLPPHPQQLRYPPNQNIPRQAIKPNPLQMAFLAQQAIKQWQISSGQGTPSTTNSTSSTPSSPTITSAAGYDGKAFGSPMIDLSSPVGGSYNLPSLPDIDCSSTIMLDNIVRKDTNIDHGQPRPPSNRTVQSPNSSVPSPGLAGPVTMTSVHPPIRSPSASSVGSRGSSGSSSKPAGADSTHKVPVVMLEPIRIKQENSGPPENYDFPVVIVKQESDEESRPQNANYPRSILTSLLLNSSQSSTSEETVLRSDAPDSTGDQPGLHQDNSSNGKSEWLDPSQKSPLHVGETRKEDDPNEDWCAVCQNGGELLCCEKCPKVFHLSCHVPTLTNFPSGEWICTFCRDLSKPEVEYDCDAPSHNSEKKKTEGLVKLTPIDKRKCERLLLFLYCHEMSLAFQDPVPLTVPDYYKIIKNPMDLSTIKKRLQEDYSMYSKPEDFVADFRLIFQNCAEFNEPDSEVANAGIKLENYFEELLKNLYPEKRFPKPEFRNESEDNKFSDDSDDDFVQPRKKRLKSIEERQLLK
Dual specificity mitogen-activated protein kinase kinase; MEK1/2 (Homo sapiens), sequence (P36507 whole entry, looked up): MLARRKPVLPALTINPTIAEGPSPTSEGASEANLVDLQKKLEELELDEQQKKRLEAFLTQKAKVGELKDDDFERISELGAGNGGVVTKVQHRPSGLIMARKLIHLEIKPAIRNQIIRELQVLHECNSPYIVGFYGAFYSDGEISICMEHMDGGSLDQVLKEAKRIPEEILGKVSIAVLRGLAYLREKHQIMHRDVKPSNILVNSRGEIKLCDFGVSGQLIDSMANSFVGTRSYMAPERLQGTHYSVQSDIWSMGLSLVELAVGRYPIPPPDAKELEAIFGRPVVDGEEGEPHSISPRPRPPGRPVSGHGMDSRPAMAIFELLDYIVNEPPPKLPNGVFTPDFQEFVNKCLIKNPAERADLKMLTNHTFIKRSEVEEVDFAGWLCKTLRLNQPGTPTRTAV
Dual specificity mitogen-activated protein kinase kinase; MEK1/2 (Homo sapiens), sequence (Q02750 whole entry, looked up): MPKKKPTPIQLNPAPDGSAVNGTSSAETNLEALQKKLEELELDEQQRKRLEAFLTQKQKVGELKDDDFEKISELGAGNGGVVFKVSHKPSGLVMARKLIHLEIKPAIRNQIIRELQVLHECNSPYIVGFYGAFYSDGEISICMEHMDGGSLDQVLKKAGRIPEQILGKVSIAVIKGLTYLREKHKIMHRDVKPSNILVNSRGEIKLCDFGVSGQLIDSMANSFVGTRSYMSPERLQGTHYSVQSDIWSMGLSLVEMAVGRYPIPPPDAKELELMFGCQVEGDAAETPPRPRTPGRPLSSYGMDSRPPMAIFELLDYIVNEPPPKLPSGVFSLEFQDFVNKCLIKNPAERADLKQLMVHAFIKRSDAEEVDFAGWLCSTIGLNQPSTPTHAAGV

## Cc1ncsc1-c1ccc([C@H](C)NC(=O)[C@@H]2C[C@@H](O)CN2C(=O)[C@@H](NC(=O)COCCCOCCNC(=O)C[C@@H]2N=C(c3ccc(Cl)cc3)c3c(sc(C)c3C)-n3c(C)nnc32)C(C)(C)C)cc1
[1]
  Emax: 100%
HeLa
  IC50: 183 nM

## Cc1ncsc1-c1ccc(CNC(=O)[C@@H]2C[C@@H](O)CN2C(=O)[C@@H](NC(=O)COCCOCCOCCNC(=O)C[C@@H]2N=C(c3ccc(Cl)cc3)c3c(sc(C)c3C)-n3c(C)nnc32)C(C)(C)C)cc1
MCF7
  TGI: 59.8%

## Cc1ncsc1-c1ccc([C@H](C)NC(=O)[C@@H]2C[C@@H](OC(=O)CCCCn3cc(CNC(=O)CC[C@H](NC(=O)c4ccc(NCc5cnc6nc(N)[nH]c(=O)c6n5)cc4)C(=O)O)nn3)CN2C(=O)[C@@H](NC(=O)CCCCCCCCCCNCCCONC(=O)c2ccc(F)c(F)c2Nc2ccc(I)cc2F)C(C)(C)C)cc1
HT-29
  IC50: 246 nM
[2]
  Emax: 90%

## CCCOc1cccc(Oc2cc3c(cc2NS(=O)(=O)c2ccc(OC)c(OC)c2)n(C)c(=O)n3C)c1
[3]
  IC50: 218 nM

## C=CC(=O)N1C[C@@H](n2nc(-c3ccc(Oc4ccccc4)cc3)c3c(N)ncnc32)C[C@H]1C(=O)OCCOCCOCC(=O)N[C@H](C(=O)N1C[C@H](O)C[C@H]1C(=O)NCc1ccc(-c2scnc2C)cc1)C(C)(C)C
[4]
  DC50: 220 nM
[5]
  Emax: 88%
[6]
  DC50: 136 nM
[7]
  Emax: 75%

## Cc1ncsc1-c1ccc(CNC(=O)[C@@H]2C[C@@H](O)CN2C(=O)[C@@H](NC(=O)COCCCCCOCCOCCCCCOCC(=O)NCCNc2cccc3c2C(=O)N(C2CCC(=O)NC2=O)C3=O)C(C)(C)C)cc1 (some centres undefined)
Protein cereblon [8]
  Emax: 75%
Protein cereblon [9]
  DC50: 200 nM

## Nc1ncnc2c1c(-c1ccc(Oc3ccccc3)cc1)nn2[C@@H]1CCCN(C(=O)/C=C/CCCCOCCOCCOCCOCCOc2cccc3c2C(=O)N(C2CCC(=O)NC2=O)C3=O)C1 (some centres undefined)
[10]
  DC50: 1.9 nM
[11]
  Emax: 88%

## CC1(C)[C@H](NC(=O)c2ccc(OCC(=O)NCCCOCCOCCOCCCN(C(=O)CCl)C(C(=O)NCc3ccccc3)c3ccc(Cl)c(Cl)c3)cc2)C(C)(C)[C@H]1Oc1ccc(C#N)c(Cl)c1 (some centres undefined)
[12]
  Emax: 90%

## CN[C@@H](C)C(=O)N[C@H](C(=O)N1C[C@@H](NC(=O)COCCOCCOCCOCCN2CCN(C/C=C/C(=O)N3CCC[C@@H](n4nc(-c5ccc(Oc6ccccc6)cc5)c5c(N)ncnc54)C3)CC2)C[C@H]1C(=O)N[C@H]1CCCc2ccccc21)C1CCCCC1
[13]
  Emax: 100%

## COc1ccc(C2=N[C@@H](c3ccc(Cl)cc3)[C@@H](c3ccc(Cl)cc3)N2C(=O)N2CCNC(=O)C2)c(OC(C)C)c1 [NUTLIN-3]
A549
  IC50: 7900 nM
HCT-116
  IC50: 5000 nM

## Cc1cc(Nc2ncc(Cl)c(Nc3ccccc3S(=O)(=O)C(C)C)n2)c(OC(C)C)cc1C1CCN(CC(=O)NCCNc2cccc3c2C(=O)N(C2CCC(=O)N(C(=O)OCCSSCCn4cc(CNC(=O)CC[C@H](NC(=O)c5ccc(NCc6cnc7nc(N)[nH]c(=O)c7n6)cc5)C(=O)O)nn4)C2=O)C3=O)CC1 (some centres undefined)
[14]
  Emax: 100%
[15]
  Emax: 100%
SU-DHL-1
  IC50: 465 nM

## C[C@H]1[C@H](C)CC[C@]2(C(=O)NCCOCCOCCOCCNc3cccc4c3C(=O)N(C3CCC(=O)NC3=O)C4=O)CC[C@]3(C)C(=CC[C@@H]4[C@@]5(C)CC[C@H](O)C(C)(C)[C@@H]5CC[C@]43C)[C@H]12 (some centres undefined)
HepG2
  IC50: 380 nM
A549
  IC50: 230 nM
Huh-7
  IC50: 390 nM
